Assay results taken from patent publication US20240238318A1, “L-FUCOSE AND ANTI-ANDROGEN RECEPTOR THERAPY FOR TREATMENT OF CANCER” (H. LEE MOFFITT CANCER CENTER AND RESEARCH INSTITUTE, INC., priority 2021, published 2024).

System: tumor growth and metastasis
Test: dietary L-fucose supplementation in mouse tumor models
Format: in vivo
Source text: Global fucosylation is reduced during progression in human melanomas (UEA1 fucose-binding lectin staining analysis of tumor microarray (TMA; n=˜300 patients)) via an ATF2-mediated transcriptional repression of fucokinase (FUK). However, AR transcriptionally upregulates Fucosyltransferase 4 (FUT4) expression via binding to the ARE motif in FUT4 promoter (FIG. 3). Additionally, the global tumor fucosylation is more pronounced in males relative to females (FIG. 4). […] Furthermore, the AR-FUT4 axis facilitates melanoma invasion via disrupting N-Cadherin/catenin junction complexes (FIG. 6). […] Thus, FUT4 is required for androgen-stimulated melanoma cell viability and motility (FIG. 7).

C[C@H](O)[C@@H](O)[C@@H](O)[C@H](O)C=O [L-fucose]
block of tumor growth and metastasis: > 50%
